Measured values: ChEMBL document CHEMBL1147628, “Identification of novel potent bicyclic peptide deformylase inhibitors” (Bioorg Med Chem Lett, 2004)

Biological target: T1, Peptide deformylase (Staphylococcus aureus subsp. aureus Mu50, UniProt P68825)
T1 sequence (P68825 whole entry): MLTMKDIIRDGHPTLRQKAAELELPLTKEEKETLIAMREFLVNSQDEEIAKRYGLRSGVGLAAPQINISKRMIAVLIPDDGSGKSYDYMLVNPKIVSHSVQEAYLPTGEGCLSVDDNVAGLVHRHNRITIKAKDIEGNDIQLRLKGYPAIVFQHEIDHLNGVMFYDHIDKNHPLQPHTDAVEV
Test: Inhibitory activity towards Ni-peptide deformylase of Staphylococcus aureus

SMILES | IC50
O=C(CC1Sc2ccccc2N(CC(=O)Nc2ccccn2)C1=O)NO (stereo not given) | 343 nM
CN1C(=O)C(CC(=O)NO)Sc2ccccc21 (stereo not given) | 37 nM
O=C(CC1Cc2ccccc2N(CC2CC2)C1=O)NO (stereo not given) | 175 nM
O=C(CC1Sc2ccccc2N(CC2CCCCO2)C1=O)NO (stereo not given) | 18 nM
O=C(O)CC1Sc2ccccc2NC1=O (stereo not given) | > 2000 nM
N#CCN1C(=O)C(CC(=O)NO)Sc2ccccc21 (stereo not given) | 515 nM
O=C(CC1Sc2ccccc2N(CCC2CCCCC2)C1=O)NO (stereo not given) | 57 nM
NNC(=O)CC1Sc2ccccc2NC1=O (stereo not given) | 330 nM
O=C(CC1Sc2ccccc2N(CC(=O)Nc2cc(F)ccc2F)C1=O)NO (stereo not given) | 58 nM
O=C(CC1C(=O)Nc2ccccc2S1(=O)=O)NO (stereo not given) | > 2000 nM
O=C(CC1Sc2ccccc2N(CC2CCC2)C1=O)NO (stereo not given) | 41 nM
CONC(=O)CC1Sc2ccccc2NC1=O (stereo not given) | 74 nM
O=C1Nc2ccccc2SC1CNO (stereo not given) | > 2000 nM
CC(C)(C)C(=O)CN1C(=O)C(CC(=O)NO)Sc2ccccc21 (stereo not given) | 50 nM
CON(C)C(=O)CC1Sc2ccccc2NC1=O (stereo not given) | > 2000 nM
O=C(CC1Sc2ccccc2N(CC(=O)N2CCCC2)C1=O)NO (stereo not given) | 397 nM

Stronger by IC50, values ahead:

IC50 | SMILES
< 5 nM | CCCCC[C@H](CC(=O)NO)C(=O)N[C@H](C(=O)N1CCC[C@H]1CO)C(C)C [ACTINONIN]
< 5 nM | COCCN1C(=O)C(CC(=O)NO)Sc2ccccc21 (stereo not given)
< 5 nM | CCCCCN1C(=O)C(CC(=O)NO)Sc2ccccc21 (stereo not given)
< 5 nM | CC(C)CCN1C(=O)C(CC(=O)NO)Sc2ccccc21 (stereo not given)
< 5 nM | CC(C)CCCN1C(=O)C(CC(=O)NO)Sc2ccccc21 (stereo not given)
12 nM | O=C(CC1Sc2ccccc2N(Cc2ccccc2)C1=O)NO (stereo not given)
< 5 nM | O=C(CC1Sc2ccccc2N(CCc2ccccc2)C1=O)NO (stereo not given)
< 5 nM | O=C(CC1Sc2ccccc2NC1=O)NO (stereo not given)
< 5 nM | O=C(CC1Sc2ccccc2N(CCC2OCCO2)C1=O)NO (stereo not given)
